# Patent US7928063B2, “Analogs of human growth hormone-releasing hormone, their preparation and use” (Instytut Farmaceutyczny, priority 2001, dated 2011)
# Read-outs that look alike come from different tables or passages of the source. Square brackets hold non-standard residues; d marks the D form. Peptide text beside a SMILES is read from it. * marks the point of attachment. Desaminotyrosyl = O=C(CCc1ccc(O)cc1)*; hArg = N=C(N)NCCCC[C@H](N)C(=O)O; Agp = N=C(N)NC[C@H](N)C(=O)O; Nle = CCCC[C@H](N)C(=O)O
# Tested on: trypsin
# Experiment: Trypsin digestion test (enzymatic resistance, HPLC)
# Type: in vitro ADME
# Settings: for Resistance to trypsin digestion (in words): after 30 minutes
# Protocol: The compounds prepared were also tested for enzymatic resistance in the trypsin digestion test. […] Subsequently, a trypsin solution was added (100 μl; 0.02 mg/ml; Serva, 36 U/mg). […] An aliquot (500 μl) was withdrawn and diluted with 0.5 M acetic acid (1 ml), then lyophilized. The material obtained was analyzed by HPLC, using a Knauer system with an Eurospher 100 C18 (4.6×250 mm, 5 micron) column. The following solvent systems were used: A, 0.1% TFA in water; […]
# [1] = isolated enzyme trypsin, pH 8.5
SMILES,"remaining at 0.5 h, 0.4 mg/ml [1] [%]","remaining at 1 h, 0.4 mg/ml [1] [%]",Resistance to trypsin digestion (in words),"remaining at 0.5 h, 0.4 mg/ml (isolated enzyme trypsin, trypsin, pH 8.5, 37° C., digestion time 30 min., read-out: % Unchanged compound) [%]","remaining at 1 h, 0.4 mg/ml (isolated enzyme trypsin, trypsin, pH 8.5, 37° C., digestion time 60 min., read-out: % Unchanged compound) [%]","remaining at 0.5 h, 0.4 mg/ml (trypsin solution (Serva, 36 U/mg), trypsin, pH 8.5, 37° C., digestion time 30 min., read-out: % Unchanged compound) [%]","remaining at 1 h, 0.4 mg/ml (trypsin solution (Serva, 36 U/mg), trypsin, pH 8.5, 37° C., digestion time 60 min., read-out: % Unchanged compound) [%]"
"CCCC[C@H](NC(=O)[C@@H](NC(=O)[C@H](CC(=O)O)NC(=O)[C@H](CCC(N)=O)NC(=O)[C@H](CC(C)C)NC(=O)[C@H](CC(C)C)NC(=O)[C@H](CNC(=N)N)NC(=O)[C@H](CNC(=N)N)NC(=O)[C@H](C)NC(=O)[C@H](CO)NC(=O)[C@H](CC(C)C)NC(=O)[C@H](CCC(N)=O)NC(=O)[C@H](C)NC(=O)[C@H](CC(C)C)NC(=O)[C@@H](NC(=O)[C@H](CNC(=N)N)NC(=O)[C@H](CNC(=N)N)NC(=O)[C@H](Cc1ccc(O)cc1)NC(=O)[C@H](CO)NC(=O)[C@H](CC(N)=O)NC(=O)[C@@H](NC(=O)[C@H](Cc1ccccc1)NC(=O)[C@@H](NC(=O)[C@H](C)NC(=O)[C@H](CC(=O)O)NC(=O)[C@H](C)NC(=O)CCc1ccc(O)cc1)[C@@H](C)CC)[C@@H](C)O)C(C)C)[C@@H](C)CC)C(=O)N[C@@H](CC(=O)O)C(=O)N[C@@H](CNC(=N)N)C(N)=O [Compound 7, Dat-Ala-Asp-Ala-Ile-Phe-Thr-Asn-Ser-Tyr^10-Gap-Gap-Val-Leu-Ala-Gln-Leu-Ser-Ala-Gap-Gap-Leu-Leu-Gln-Asp-Ile-Nle-Asp-Gap-NH2] (Desaminotyrosyl-ADAIFTNSY[Agp][Agp]VLAQLSA[Agp][Agp]LLQDI[Nle]D[Agp]-NH2)",75,68,–,–,–,–,–
"CCCC[C@H](NC(=O)[C@@H](NC(=O)[C@H](CC(=O)O)NC(=O)[C@H](CCC(N)=O)NC(=O)[C@H](CC(C)C)NC(=O)[C@H](CC(C)C)NC(=O)[C@H](CNC(=N)N)NC(=O)[C@H](CCCCNC(=N)N)NC(=O)[C@H](C)NC(=O)[C@H](CO)NC(=O)[C@H](CC(C)C)NC(=O)[C@H](CCC(N)=O)NC(=O)[C@H](C)NC(=O)[C@H](CC(C)C)NC(=O)[C@@H](NC(=O)[C@H](CNC(=N)N)NC(=O)[C@H](CNC(=N)N)NC(=O)[C@H](Cc1ccc(O)cc1)NC(=O)[C@H](CO)NC(=O)[C@H](CC(N)=O)NC(=O)[C@@H](NC(=O)[C@H](Cc1ccccc1)NC(=O)[C@@H](NC(=O)[C@H](C)NC(=O)[C@H](CC(=O)O)NC(=O)[C@H](C)NC(=O)CCc1ccc(O)cc1)[C@@H](C)CC)[C@@H](C)O)C(C)C)[C@@H](C)CC)C(=O)N[C@@H](CC(=O)O)C(=O)N[C@@H](CNC(=N)N)C(N)=O [Compound 8, Dat-Ala-Asp-Ala-Ile-Phe-Thr-Asn-Ser-Tyr^10-Gap-Gap-Val-Leu-Ala-Gln-Leu-Ser-Ala-hArg-Gap-Leu-Leu-Gln-Asp-Ile-Nle-Asp-Gap-NH2] (Desaminotyrosyl-ADAIFTNSY[Agp][Agp]VLAQLSA[hArg][Agp]LLQDI[Nle]D[Agp]-NH2)",–,–,unchanged,> 99,> 99,–,–
"CC[C@H](C)[C@H](NC(=O)[C@H](C)NC(=O)[C@H](CC(=O)O)NC(=O)[C@H](C)NC(=O)[C@@H](N)Cc1ccc(O)cc1)C(=O)N[C@@H](Cc1ccccc1)C(=O)N[C@H](C(=O)N[C@@H](CC(N)=O)C(=O)N[C@@H](CO)C(=O)N[C@@H](Cc1ccc(O)cc1)C(=O)N[C@@H](CCCNC(=N)N)C(=O)N[C@@H](CCCCN)C(=O)N[C@H](C(=O)N[C@@H](CC(C)C)C(=O)NCC(=O)N[C@@H](CCC(N)=O)C(=O)N[C@@H](CC(C)C)C(=O)N[C@@H](CO)C(=O)N[C@@H](C)C(=O)N[C@@H](CCCNC(=N)N)C(=O)N[C@@H](CCCCN)C(=O)N[C@@H](CC(C)C)C(=O)N[C@@H](CC(C)C)C(=O)N[C@@H](CCC(N)=O)C(=O)N[C@@H](CC(=O)O)C(=O)N[C@H](C(=O)N[C@@H](CCSC)C(=O)N[C@@H](CO)C(=O)N[C@@H](CCCNC(=N)N)C(N)=O)[C@@H](C)CC)C(C)C)[C@@H](C)O [hGH-RH(1-29)-NH2, reference compound]",–,–,complete digestion,–,–,0,0
